Assays:
Rattus norvegicus [1] = species on record: Rattus norvegicus; assay: Inhibition of [3H]-dopamine uptake into striatal membrane preparations; assay type: functional, Striatum
Rattus norvegicus [2] = species on record: Rattus norvegicus; assay: Inhibition of [3H]dopamine uptake by striatal membrane preparations; assay type: functional, Striatum
Rattus norvegicus [3] = species on record: Rattus norvegicus; assay: Inhibitory concentration for [3H]-dopamine uptake by striatal membrane preparations in presence of 1000 nM compound 5; assay type: functional; details: Striatum
Rattus norvegicus [4] = species on record: Rattus norvegicus; assay: Inhibitory concentration for [3H]dopamine uptake by striatal membrane preparations in presence of 20 nM compound 43; assay type: functional; details: Striatum
Rattus norvegicus [5] = species on record: Rattus norvegicus; assay: Inhibitory concentration for [3H]dopamine uptake by striatal membrane preparations in presence of 500 nM compound 5; assay type: functional; details: Striatum
Rattus norvegicus [6] = species on record: Rattus norvegicus; assay: Inhibitory concentration for [3H]-dopamine uptake by striatal membrane preparations in presence of 50 nM compound 43; assay type: functional; details: Striatum

SMILES	Ki (Rattus norvegicus [1]) [nM]	also measured
Clc1ccc(OCCN2CCC(c3ccc(Cl)cc3)CC2)cc1	90	
Fc1ccc(OCCN2CCC(c3ccccc3)CC2)cc1	2720	
Fc1ccc(OCCN2CCC(c3ccc(F)cc3)CC2)cc1		Ki (Rattus norvegicus [2]): 840 nM
Fc1ccc(CCN2CCC(c3ccc(F)cc3)CC2)cc1	1360	
Fc1ccc(CCCCN2CCC(c3ccc(F)cc3)CC2)cc1	2540	
OC1(c2ccccc2)CCN(CCOc2ccc(F)cc2)CC1	17600	
O=C(CCN1CCC(c2ccccc2)CC1)c1ccc(F)cc1	1560	
Fc1ccc(CN2CCC(c3ccc(F)cc3)CC2)cc1	> 10000	
O=C(CCCN1CCC(c2ccc(F)cc2)CC1)c1ccc(F)cc1	3170	
O=C(CN1CCC(c2ccc(F)cc2)CC1)c1ccc(F)cc1	4330	
O=C(CCN1CCC(c2ccc(F)cc2)CC1)c1ccc(F)cc1	2670	
COC(=O)[C@H]1[C@@H](OC(=O)c2ccccc2)C[C@@H]2CC[C@H]1N2C [COCAINE]		IC50 (Rattus norvegicus [3]): 686 nM; IC50 (Rattus norvegicus [4]): 490 nM; IC50 (Rattus norvegicus [5]): 538 nM; IC50 (Rattus norvegicus [6]): 696 nM
